Assay results published in US20060063818A1, “Hydantoin derivatives and deren verwendung als tace inhibitoren” (priority 2002, published 2006).

Target: T1, proTNF-α convertase enzyme (TACE) (Homo sapiens, UniProt P78536)
T1 construct: a partially purified, isolated enzyme assay, the enzyme being obtained from the membranes of TBP-1; endogenous in cells
Test: Isolated enzyme assay, proTNF-α convertase (TACE), fluorogenic peptide substrate
Type: biochemical
Details: partially purified enzyme from membranes of TBP-1; 26° C. for 4 hours; read-out: concentration of compound that gave 50% inhibition of TACE
Procedure: Recombinant human proMMP13 may be expressed and purified as described by Knauper et al. [V. Knauper et al., (1996) The Biochemical Journal 271:1544-1550 (1996)]. The purified enzyme can be used to monitor inhibitors of activity as follows: purified proMMP13 is activated using lmM amino phenyl mercuric […] (APMA), 20 hours at 21° C.; the activated MMP13 (11.25 ng per assay) is incubated for 4-5 hours at 35° C. in assay buffer (0.1M Tris-HCl, pH 7.5 containing 0.1M NaCl, 20 mM CaCl2, 0.02 mM ZnCl and 0.05% (w/v) Brij 35 using the synthetic substrate 7-methoxycoumarin-4-yl)acetyl.Pro.Leu.Gly.Leu.N-3-(2,4-dinitrophenyl)-L2,3-diaminopropionyl.Ala.Arg.NH2 in the presence or absence of inhibitors. Activity is determined by measuring the fluorescence at λex 328 nm and λem 393 nm. Percent inhibition is calculated as follows: % Inhibition is equal to the […].
The ability of the compounds to inhibit proTNF-α convertase enzyme (TACE) may be assessed using a partially purified, isolated enzyme assay, the enzyme being obtained from the membranes of TBP-1 as described by K. M. Mohler et al., (1994) Nature 370:218-220. […] The amount of inhibition is determined as for MMP13 except λex 485 nm and λem 538 nm were used. […]

T1 sequence (P78536 215-824): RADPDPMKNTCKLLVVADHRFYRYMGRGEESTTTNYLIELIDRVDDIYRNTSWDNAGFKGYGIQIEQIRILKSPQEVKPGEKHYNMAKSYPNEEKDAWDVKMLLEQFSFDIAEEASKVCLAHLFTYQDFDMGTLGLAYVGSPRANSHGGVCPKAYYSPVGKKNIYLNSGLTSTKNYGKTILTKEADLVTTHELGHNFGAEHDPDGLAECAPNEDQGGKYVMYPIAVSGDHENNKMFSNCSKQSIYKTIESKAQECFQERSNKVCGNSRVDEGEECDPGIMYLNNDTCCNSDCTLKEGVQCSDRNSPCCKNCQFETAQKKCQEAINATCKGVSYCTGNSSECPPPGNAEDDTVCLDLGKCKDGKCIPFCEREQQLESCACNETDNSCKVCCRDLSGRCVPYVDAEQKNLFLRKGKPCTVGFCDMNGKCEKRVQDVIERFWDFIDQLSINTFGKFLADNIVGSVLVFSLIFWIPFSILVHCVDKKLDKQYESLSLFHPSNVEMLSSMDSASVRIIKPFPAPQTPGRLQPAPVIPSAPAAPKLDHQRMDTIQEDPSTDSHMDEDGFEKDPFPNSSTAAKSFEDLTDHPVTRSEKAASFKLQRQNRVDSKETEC

- IC50: 130 nM
SMILES: Cc1cc(COc2ccc(C3(C)CCN(CC4(c5ccccc5)NC(=O)NC4=O)C3=O)cc2)c2ccccc2n1 (stereo not shown) [compound 6, 5-{3-Methyl-3-[4-(2-methylquinolin-4-ylmethoxy)phenyl]-2oxopyrrolidin-1-ylmethyl}-5-phenylimidazolidine-2,4-dione]
